{
  "source": "paper PMC3003753",
  "about": "(Journal of medicinal chemistry, 2010)",
  "key": {"CCR5": {"target": "CCR5 (Homo sapiens, UniProt P51681)", "sequence (P51681 whole entry)": "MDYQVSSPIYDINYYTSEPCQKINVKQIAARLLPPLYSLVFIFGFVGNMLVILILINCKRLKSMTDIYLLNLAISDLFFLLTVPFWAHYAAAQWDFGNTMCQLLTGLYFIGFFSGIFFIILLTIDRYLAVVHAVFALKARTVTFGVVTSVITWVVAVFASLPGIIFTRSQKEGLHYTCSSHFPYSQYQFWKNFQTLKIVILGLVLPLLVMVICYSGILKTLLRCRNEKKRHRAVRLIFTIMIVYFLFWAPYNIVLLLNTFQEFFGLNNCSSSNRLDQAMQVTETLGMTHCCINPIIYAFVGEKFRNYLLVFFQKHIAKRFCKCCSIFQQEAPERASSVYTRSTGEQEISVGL", "experiment": "cAMP assay, U87CD4CCR5 cells stimulated with CCL5", "assay_type": "cell-based", "conditions": "150 ng/mL CCL5"}, "[1]": {"experiment": "Further preclinical studies of compound 5", "assay_type": "in vivo", "conditions": "data not shown"}, "[2]": {"tested_on": "carrageenan-induced mouse paw inflammation", "experiment": "Carrageenan-induced paw edema model", "assay_type": "in vivo", "conditions": "for Paw inflammation inhibition percentage: 10 mg/kg i.p. daily; for Paw inflammation suppression compared with 4: 10 mg/kg i.p. versus 4 at 300 µg/kg"}, "CXCR4 [3]": {"target": "T1, CXCR4 (Homo sapiens, UniProt P61073)", "T1 sequence (P61073 whole entry)": "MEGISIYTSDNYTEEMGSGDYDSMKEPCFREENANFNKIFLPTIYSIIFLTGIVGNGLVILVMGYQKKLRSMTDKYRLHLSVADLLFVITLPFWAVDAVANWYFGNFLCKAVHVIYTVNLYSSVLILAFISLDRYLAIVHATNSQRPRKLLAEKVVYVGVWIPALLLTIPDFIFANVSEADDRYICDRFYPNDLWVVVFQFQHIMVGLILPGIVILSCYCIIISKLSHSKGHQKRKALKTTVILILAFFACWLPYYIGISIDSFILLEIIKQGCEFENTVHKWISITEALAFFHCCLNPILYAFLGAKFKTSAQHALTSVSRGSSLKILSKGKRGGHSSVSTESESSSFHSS", "experiment": "cAMP assay", "assay_type": "cell-based"}, "CXCR4 [4]": {"target": "T1, CXCR4", "experiment": "Ca2+ flux induced by CXCR4/CXCL12 interaction", "assay_type": "cell-based", "conditions": "Gq pathway; data not shown"}, "[5]": {"tested_on": "CXCR4/CXCL12-mediated Matrigel invasion of MDA-MB-231 cells", "experiment": "Matrigel invasion assay, CXCL12 as chemoattractant", "assay_type": "cell-based", "conditions": "10 nM compound, 200 ng/mL CXCL12, 0.01 µM"}, "Melanoma OMM2.3 cells": {"tested_on": "Melanoma OMM2.3 cells", "experiment": "Uveal melanoma micrometastasis mouse model", "assay_type": "in vivo", "conditions": "for Number of hepatic micrometastases: control around 90"}, "[6]": {"experiment": "Blood clearance and bioavailability of 26 in mice", "conditions": "mouse, in vivo"}, "[7]": {"tested_on": "MDA-MB-231 cells in Matrigel plugs", "experiment": "In vivo tumor angiogenesis assay", "design": "species or system mouse", "conditions": "300 µg/kg daily s.c., 10 days, nude mice"}, "[8]": {"tested_on": "bleomycin induced lung fibrosis", "experiment": "Bleomycin induced lung fibrosis model", "assay_type": "in vivo, mouse", "conditions": "300 µg/kg i.p. daily, day 20 after bleomycin"}},
  "data": [
    {"compound": "c1ccc(NCc2ccc(CNc3ccccn3)cc2)nc1", "note": "[Compound 5, WZ811]", "values": [
      {"measurement": "Effect on blocking CCL5 stimulating CCR5 (cAMP)", "setting": "CCR5", "result": "no significant effect"},
      {"measurement": "Bioavailability", "setting": "[1]", "result": "poor bioavailability"},
      {"measurement": "In vivo efficacy", "setting": "[1]", "result": "failed to exhibit any in vivo efficacy"}
    ]},
    {"compound": "Fc1cccc(NCc2ccc(CNc3ncccn3)cc2)n1", "note": "[Compound 10e, N-(4-((6-fluoropyridin-2-ylamino)methyl)benzyl)pyrimidin-2-amine]", "values": [
      {"measurement": "Paw inflammation inhibition percentage", "setting": "[2]; C57BL/6J mice", "result": "more than 50%"},
      {"measurement": "Paw inflammation suppression compared with 4", "setting": "[2]", "result": "comparable to 4"}
    ]},
    {"compound": "Clc1cccc(NCc2ccc(CNc3ncccn3)cc2)n1", "note": "[Compound 10g, N-(4-((6-chloropyridin-2-ylamino)methyl)benzyl)pyrimidin-2-amine]", "values": [
      {"measurement": "Paw inflammation inhibition percentage", "setting": "[2]; C57BL/6J mice", "result": "more than 50%"},
      {"measurement": "Paw inflammation suppression compared with 4", "setting": "[2]", "result": "comparable to 4"}
    ]},
    {"compound": "Fc1cnc(NCc2ccc(CNc3nccc(C(F)(F)F)n3)cc2)nc1", "note": "[Compound 21a, N-(4-((5-fluoropyrimidin-2-ylamino)methyl)benzyl)-4-(trifluoromethyl)pyrimidin-2-amine]", "values": [
      {"measurement": "Interrupting CXCL12/CXCR4-mediated cAMP modulation", "setting": "CXCR4 [3]", "result": "effective"},
      {"measurement": "Block of Ca2+ flux induced by CXCR4/CXCL12 interaction", "setting": "CXCR4 [4]", "result": "do not block"}
    ]},
    {"compound": "CSc1nccc(NCc2ccc(CNc3ncc(F)cn3)cc2)n1", "note": "[Compound 21b, 5-fluoro-N-(4-((2-(methylthio)pyrimidin-4-ylamino)methyl)benzyl)pyrimidin-2-amine]", "values": [
      {"measurement": "Invasion Inhibition 10nM", "setting": "[5]", "result": 62, "unit": "%"},
      {"measurement": "Paw inflammation suppression compared with 4", "setting": "[2]", "result": "comparable to 4"}
    ]},
    {"compound": "CCOCCN1CCN(C(=O)c2cnc(NCc3ccc(CNc4ncc(F)cn4)cc3)nc2C(F)(F)F)CC1", "note": "[Compound 21c, (4-(2-ethoxyethyl)piperazin-1-yl)(2-(4-((5-fluoropyrimidin-2-ylamino)methyl)benzylamino)-4-(trifluoromethyl)pyrimidin-5-yl)methanone]", "values": [
      {"measurement": "Effect on blocking CCL5 stimulating CCR5 (cAMP)", "setting": "CCR5", "result": "no significant effect"}
    ]},
    {"compound": "Fc1cnc(Cl)nc1NCc1ccc(CNc2ccnc(NCCN3CCOCC3)n2)cc1", "note": "[Compound 26]", "values": [
      {"measurement": "Invasion Inhibition 10nM", "setting": "[5]", "result": "> 60", "unit": "%"},
      {"measurement": "IC50", "setting": "CXCR4 [3]", "result": "~1", "unit": "nM"},
      {"measurement": "Interrupting CXCL12/CXCR4-mediated cAMP modulation", "setting": "CXCR4 [3]", "result": "effective"},
      {"measurement": "Number of hepatic micrometastases", "setting": "Melanoma OMM2.3 cells; 10 mg/kg i.p. daily", "result": "around 40"},
      {"measurement": "Effect on blocking CCL5 stimulating CCR5 (cAMP)", "setting": "CCR5", "result": "no significant effect"},
      {"measurement": "Paw inflammation suppression compared with 4", "setting": "[2]", "result": "comparable to 4"},
      {"measurement": "Oral bioavailability", "setting": "[6]", "result": "lack of oral bioavailability"},
      {"measurement": "Block of Ca2+ flux induced by CXCR4/CXCL12 interaction", "setting": "CXCR4 [4]", "result": "do not block"}
    ]},
    {"compound": "TN14003 [Compound 4]", "values": [
      {"measurement": "Angiogenesis inhibition (hemoglobin content of Matrigel plugs)", "setting": "[7]", "result": "about 70%"},
      {"measurement": "Decrease of hepatic micrometastases", "setting": "Melanoma OMM2.3 cells; 300 µg/kg i.p. daily, nude mice", "result": "about 50%"},
      {"measurement": "Number of hepatic micrometastases", "setting": "Melanoma OMM2.3 cells; 300 µg/kg i.p. daily", "result": "around 40"},
      {"measurement": "Paw inflammation suppression", "setting": "[2]; 300 µg/kg i.p. daily, C57BL/6J mice", "result": "about 50%"},
      {"measurement": "Lung fibrosis inhibition", "setting": "[8]", "result": 85, "unit": "%"}
    ]}
  ]
}
